Assay results: ChEMBL document CHEMBL1201862, “PubChem BioAssay data set” (2004)
Active and inactive are the calls of the source.

Key:
[1] = test system: HEK293; experiment: cells; assay type: functional, cell-based; conditions: Homo sapiens
[2] = test system: HEK293; experiment: NOD1 signaling inhibitors, primary screen, cell-based, luminescence, uHTS (AID 1578); assay type: functional; conditions: Homo sapiens
[3] = target: T1, Nucleotide-binding oligomerization domain-containing protein 1 (Homo sapiens, UniProt Q9Y239); experiment: NOD1 signaling inhibitors, SAR follow-up, revised (AID 2333); assay type: functional
T1 sequence (Q9Y239 whole entry): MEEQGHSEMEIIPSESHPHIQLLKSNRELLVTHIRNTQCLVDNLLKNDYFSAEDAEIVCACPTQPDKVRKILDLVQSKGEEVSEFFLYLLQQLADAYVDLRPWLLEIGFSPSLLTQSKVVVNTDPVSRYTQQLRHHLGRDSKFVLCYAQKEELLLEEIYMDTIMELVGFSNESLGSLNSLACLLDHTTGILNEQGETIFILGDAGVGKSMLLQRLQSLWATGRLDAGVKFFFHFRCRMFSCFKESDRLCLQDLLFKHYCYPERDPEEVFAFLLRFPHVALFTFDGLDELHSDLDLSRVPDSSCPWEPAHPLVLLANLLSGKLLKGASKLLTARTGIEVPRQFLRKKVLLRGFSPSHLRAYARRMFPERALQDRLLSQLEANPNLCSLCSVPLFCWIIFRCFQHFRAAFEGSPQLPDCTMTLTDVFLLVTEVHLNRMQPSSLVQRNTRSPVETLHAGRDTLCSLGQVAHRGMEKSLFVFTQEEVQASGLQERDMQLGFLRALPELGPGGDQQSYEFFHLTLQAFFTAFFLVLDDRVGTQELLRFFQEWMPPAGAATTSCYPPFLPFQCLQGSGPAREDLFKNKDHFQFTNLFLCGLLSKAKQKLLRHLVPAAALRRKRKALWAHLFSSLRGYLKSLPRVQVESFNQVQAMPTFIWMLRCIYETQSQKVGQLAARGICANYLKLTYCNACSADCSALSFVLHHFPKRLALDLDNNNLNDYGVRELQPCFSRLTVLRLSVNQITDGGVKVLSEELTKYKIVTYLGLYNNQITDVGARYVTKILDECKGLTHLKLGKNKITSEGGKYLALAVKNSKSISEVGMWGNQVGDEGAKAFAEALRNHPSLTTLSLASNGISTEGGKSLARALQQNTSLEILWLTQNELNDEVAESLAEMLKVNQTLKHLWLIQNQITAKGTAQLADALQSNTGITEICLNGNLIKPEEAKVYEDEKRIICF

[4] = target: T2, Nucleotide-binding oligomerization domain-containing protein 2 (Homo sapiens, UniProt Q9HC29); experiment: PubChem AID 2334; assay type: functional
[5] = target: T2, Nucleotide-binding oligomerization domain-containing protein 2; experiment: NOD2 signaling inhibitors, cell-based, luminescence, uHTS, HEK293 (AID 1566); assay type: functional
[6] = test system: HEK293; experiment: cells; conditions: Homo sapiens
[7] = test system: HEK293; experiment: cells; assay type: functional, cell-based; conditions: Homo sapiens; remark: listed apart in the source
[8] = target: Tumor necrosis factor (Homo sapiens, UniProt P01375); experiment: TNFa-triggered NF-kB activation inhibitors, SAR follow-up, cell-based, revised (AID 2337); assay type: functional
[9] = test system: Streptococcus; experiment: Group A Streptococcus viability loss, dose response, counter-screen for streptokinase expression inhibitor project, luminescence, BacTiterGlo (AID 1915); assay type: functional, organism-based;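 also: potency for reduction of bacterial viability or growth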
[10] = test system: HEK293; experiment: NOD2 signaling inhibitors in MDP-stimulated cells, cell-based, uHTS, luminescence (AID 2001); assay type: functional; conditions: Homo sapiens
[11] = test system: Streptococcus sp. 'group A'; experiment: growth inhibition of control SK(-) GAS strain, dose response, counter-screen for streptokinase expression inhibitor project, luminescence, kanamycin, BacTiterGlo, confirmation (AID 1900); assay type: functional, organism-based
[12] = test system: HEK293; experiment: cells; assay type: functional, cell-based; conditions: Homo sapiens; remark: listed apart in the source
[13] = target: Melanin-concentrating hormone receptor 1 (Homo sapiens, UniProt Q99705); experiment: Late-stage fluorescence-based counterscreen for antagonists of the G-protein coupled receptor 7 (GPR7): cell-based dose response assay to identify antagonists of the melanin-concentrating hormone receptor 1 (MCHR1). [Related pubchem assays (depositor defined):AID1861, AID1880, AID1952, AID2148, AID2251, AID2257, AID485339]; assay type: functional;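 also: stimulated with 30 nM MCH peptide agonist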
[14] = target: Coagulation factor XII (Homo sapiens, UniProt P00748); assay type: functional;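 also: activated factor XIIa alpha cleaving a fluorogenic AMC peptide substrate; inhibitor potency from loss of enzyme activity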
[15] = target: Bcl-2-like protein 10 (Homo sapiens, UniProt Q9HD36); experiment: displacers of TR3 peptide from Bcl-B, primary screen, selectivity assay for Bfl-1 inhibitor project, biochemical, fluorescence polarization, FITC-TR3 peptide (AID 748);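 also: fluorescence polarization from a fluorescein-labelled TR3 peptide binding purified Bcl-B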
[16] = target: T3, Voltage-gated N-type calcium channel alpha-1B subunit/Amyloid beta A4 precursor protein-binding family A member 1 (Homo sapiens, UniProt Q00975+Q02410); assay type: protein assay
[17] = target: T3, Voltage-gated N-type calcium channel alpha-1B subunit/Amyloid beta A4 precursor protein-binding family A member 1; assay type: protein assay; remark: listed apart in the source
[18] = target: Eukaryotic translation initiation factor 4E (Mus musculus, UniProt P63073); experiment: eIF4E–eIF4G protein interaction inhibitors, dose response, biochemical, TR-FRET (AID 855); assay type: functional;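 also: potency for disrupting eIF4E binding to eIF4GI seen as loss of FRET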
[19] = target: DNA dC->dU-editing enzyme APOBEC-3G (Homo sapiens, UniProt Q9HC16); experiment: Dose Response confirmation of small molecule APOBEC3G DNA Deaminase Inhibitors via a fluorescence-based single-stranded DNA deaminase assay. [Related pubchem assays (depositor defined):AID493012, AID493028]; assay type: functional
[20] = target: Paired box protein Pax-8 (Homo sapiens, UniProt Q06710); experiment: inhibitors of PAX8-driven TPO luciferase reporter, dose response, RMG-I cells, cherry-pick (AID 687027); assay type: functional, cell-based;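 also: luciferase reporter driven by Pax8 target thyroperoxidase promoter measured by SteadyGlo luminescence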
[21] = target: G-protein coupled receptor 55 (Homo sapiens, UniProt Q9Y2T6); experiment: GPR55 agonists via beta-arrestin recruitment, primary screen, imaging, U2OS cells, beta-arrestin-GFP redistribution (AID 1961); assay type: functional
[22] = target: T4, Eukaryotic translation initiation factor 2-alpha kinase 3 (Homo sapiens, UniProt Q9NZJ5); experiment: Dose response cell-based high-throughput screening assay to measure PERK inhibition. [Related pubchem assays: 1416 ]; assay type: functional
T4 sequence (Q9NZJ5 whole entry): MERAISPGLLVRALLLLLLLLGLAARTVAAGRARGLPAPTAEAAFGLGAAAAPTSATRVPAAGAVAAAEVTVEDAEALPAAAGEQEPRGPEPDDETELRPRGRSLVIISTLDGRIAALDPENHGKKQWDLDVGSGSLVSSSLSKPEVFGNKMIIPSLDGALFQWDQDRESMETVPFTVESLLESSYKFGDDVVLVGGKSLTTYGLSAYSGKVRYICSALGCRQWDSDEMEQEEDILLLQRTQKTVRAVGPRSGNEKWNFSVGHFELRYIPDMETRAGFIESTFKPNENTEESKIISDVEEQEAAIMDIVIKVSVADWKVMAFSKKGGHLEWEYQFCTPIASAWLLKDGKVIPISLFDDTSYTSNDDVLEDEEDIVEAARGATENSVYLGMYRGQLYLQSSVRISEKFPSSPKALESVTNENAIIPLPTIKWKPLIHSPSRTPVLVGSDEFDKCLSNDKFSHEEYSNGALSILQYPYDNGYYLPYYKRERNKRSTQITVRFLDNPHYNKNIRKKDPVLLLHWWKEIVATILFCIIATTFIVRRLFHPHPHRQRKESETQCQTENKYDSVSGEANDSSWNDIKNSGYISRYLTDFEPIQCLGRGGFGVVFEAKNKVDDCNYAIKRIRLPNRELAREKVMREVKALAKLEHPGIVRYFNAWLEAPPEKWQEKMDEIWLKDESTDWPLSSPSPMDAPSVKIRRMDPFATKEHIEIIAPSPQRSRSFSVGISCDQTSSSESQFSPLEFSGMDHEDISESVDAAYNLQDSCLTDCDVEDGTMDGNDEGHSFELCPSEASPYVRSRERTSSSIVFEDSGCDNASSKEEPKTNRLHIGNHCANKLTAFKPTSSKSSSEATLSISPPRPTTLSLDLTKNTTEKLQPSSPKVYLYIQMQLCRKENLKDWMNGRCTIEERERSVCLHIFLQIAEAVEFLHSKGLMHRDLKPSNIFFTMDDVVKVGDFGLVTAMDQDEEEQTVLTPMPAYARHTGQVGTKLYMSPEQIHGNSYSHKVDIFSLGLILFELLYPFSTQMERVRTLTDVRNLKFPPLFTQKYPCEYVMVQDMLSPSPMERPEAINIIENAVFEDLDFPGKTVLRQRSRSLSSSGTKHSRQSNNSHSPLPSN

[23] = target: T4, Eukaryotic translation initiation factor 2-alpha kinase 3; experiment: Counterscreen assay for PERK inhibitors: Dose response cell-based high throughput screening assay to measure inhibition of PERK at 6 hours. [Related pubchem assays: 1522, 1416 ]; assay type: functional

T3 sequence (Q00975 whole entry): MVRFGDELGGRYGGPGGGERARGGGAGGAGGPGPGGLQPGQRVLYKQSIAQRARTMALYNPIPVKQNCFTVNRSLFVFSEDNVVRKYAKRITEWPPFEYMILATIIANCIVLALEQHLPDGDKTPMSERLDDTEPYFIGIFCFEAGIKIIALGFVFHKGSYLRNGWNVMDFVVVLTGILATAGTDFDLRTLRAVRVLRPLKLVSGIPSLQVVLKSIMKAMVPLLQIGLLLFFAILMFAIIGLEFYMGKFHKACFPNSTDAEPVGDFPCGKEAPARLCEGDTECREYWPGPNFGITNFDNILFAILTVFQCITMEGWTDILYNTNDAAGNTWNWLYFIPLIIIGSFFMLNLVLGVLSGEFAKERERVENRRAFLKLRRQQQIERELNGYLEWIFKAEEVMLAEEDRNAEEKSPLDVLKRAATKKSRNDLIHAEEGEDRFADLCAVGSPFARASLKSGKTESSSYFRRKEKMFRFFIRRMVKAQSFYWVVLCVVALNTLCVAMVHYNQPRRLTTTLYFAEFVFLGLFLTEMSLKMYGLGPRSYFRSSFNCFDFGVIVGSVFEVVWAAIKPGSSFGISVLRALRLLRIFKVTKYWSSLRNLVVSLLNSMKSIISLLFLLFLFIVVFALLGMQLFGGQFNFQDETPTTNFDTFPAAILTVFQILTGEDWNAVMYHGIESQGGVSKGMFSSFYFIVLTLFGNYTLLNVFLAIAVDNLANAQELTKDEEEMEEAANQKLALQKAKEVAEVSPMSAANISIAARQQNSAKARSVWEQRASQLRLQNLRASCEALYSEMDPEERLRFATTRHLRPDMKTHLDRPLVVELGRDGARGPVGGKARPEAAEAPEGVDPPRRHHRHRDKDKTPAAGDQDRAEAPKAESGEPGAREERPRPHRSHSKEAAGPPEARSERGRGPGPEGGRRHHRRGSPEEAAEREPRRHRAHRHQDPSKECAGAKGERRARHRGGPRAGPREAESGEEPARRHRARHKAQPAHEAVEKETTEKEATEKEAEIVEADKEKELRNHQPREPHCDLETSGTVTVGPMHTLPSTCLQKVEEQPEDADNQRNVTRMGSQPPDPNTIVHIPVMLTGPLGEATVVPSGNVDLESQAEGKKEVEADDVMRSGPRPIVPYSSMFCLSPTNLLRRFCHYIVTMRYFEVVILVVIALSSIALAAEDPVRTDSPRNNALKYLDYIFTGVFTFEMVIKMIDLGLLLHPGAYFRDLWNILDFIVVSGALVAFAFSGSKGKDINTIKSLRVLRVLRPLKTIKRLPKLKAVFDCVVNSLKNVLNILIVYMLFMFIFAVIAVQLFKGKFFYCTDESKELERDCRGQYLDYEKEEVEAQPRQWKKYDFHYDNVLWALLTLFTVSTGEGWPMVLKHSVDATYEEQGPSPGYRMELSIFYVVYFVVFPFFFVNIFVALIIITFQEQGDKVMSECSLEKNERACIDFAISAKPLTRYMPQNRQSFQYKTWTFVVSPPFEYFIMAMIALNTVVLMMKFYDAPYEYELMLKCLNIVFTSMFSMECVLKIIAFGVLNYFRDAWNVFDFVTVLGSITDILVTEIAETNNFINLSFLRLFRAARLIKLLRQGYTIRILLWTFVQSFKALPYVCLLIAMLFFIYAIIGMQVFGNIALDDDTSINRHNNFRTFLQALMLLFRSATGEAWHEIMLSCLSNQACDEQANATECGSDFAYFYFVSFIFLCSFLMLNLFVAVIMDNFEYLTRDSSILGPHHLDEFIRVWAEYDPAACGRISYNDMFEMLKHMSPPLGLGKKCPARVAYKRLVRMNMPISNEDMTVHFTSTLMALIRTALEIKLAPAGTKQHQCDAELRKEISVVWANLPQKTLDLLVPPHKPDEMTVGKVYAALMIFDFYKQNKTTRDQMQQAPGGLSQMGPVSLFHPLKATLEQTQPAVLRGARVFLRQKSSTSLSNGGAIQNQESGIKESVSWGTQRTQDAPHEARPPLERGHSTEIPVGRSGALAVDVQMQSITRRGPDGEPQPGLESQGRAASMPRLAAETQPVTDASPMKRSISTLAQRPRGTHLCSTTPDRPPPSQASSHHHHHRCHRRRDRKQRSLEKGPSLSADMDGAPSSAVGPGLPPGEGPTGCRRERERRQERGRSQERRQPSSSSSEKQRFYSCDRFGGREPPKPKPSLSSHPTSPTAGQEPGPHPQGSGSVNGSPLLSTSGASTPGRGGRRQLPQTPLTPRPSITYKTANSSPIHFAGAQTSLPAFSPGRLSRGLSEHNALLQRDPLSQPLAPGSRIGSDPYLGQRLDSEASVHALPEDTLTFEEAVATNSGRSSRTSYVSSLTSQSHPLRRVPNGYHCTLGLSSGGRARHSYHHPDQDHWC
T3 sequence (Q02410 whole entry): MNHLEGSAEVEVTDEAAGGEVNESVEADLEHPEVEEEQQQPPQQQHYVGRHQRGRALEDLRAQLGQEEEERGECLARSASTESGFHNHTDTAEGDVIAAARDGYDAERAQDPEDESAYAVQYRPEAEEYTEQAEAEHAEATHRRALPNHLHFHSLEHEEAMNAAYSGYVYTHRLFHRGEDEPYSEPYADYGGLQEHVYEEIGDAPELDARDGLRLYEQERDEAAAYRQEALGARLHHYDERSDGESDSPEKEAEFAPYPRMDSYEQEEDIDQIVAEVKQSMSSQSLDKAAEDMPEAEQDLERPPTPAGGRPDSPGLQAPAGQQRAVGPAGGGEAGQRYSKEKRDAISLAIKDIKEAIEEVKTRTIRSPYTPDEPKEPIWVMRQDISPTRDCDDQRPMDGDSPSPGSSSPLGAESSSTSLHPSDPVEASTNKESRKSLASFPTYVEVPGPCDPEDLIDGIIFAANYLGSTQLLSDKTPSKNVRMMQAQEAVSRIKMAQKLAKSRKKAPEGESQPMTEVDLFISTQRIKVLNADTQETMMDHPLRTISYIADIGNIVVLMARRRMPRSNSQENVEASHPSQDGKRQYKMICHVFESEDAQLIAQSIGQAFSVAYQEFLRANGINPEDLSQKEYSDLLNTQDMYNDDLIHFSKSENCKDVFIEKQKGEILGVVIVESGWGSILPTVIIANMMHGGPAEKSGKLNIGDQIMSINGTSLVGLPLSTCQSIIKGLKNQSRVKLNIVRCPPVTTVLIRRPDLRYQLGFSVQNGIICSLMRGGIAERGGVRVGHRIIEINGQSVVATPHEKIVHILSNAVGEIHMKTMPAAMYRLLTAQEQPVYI
T2 sequence (Q9HC29 whole entry, the tested form may be a part): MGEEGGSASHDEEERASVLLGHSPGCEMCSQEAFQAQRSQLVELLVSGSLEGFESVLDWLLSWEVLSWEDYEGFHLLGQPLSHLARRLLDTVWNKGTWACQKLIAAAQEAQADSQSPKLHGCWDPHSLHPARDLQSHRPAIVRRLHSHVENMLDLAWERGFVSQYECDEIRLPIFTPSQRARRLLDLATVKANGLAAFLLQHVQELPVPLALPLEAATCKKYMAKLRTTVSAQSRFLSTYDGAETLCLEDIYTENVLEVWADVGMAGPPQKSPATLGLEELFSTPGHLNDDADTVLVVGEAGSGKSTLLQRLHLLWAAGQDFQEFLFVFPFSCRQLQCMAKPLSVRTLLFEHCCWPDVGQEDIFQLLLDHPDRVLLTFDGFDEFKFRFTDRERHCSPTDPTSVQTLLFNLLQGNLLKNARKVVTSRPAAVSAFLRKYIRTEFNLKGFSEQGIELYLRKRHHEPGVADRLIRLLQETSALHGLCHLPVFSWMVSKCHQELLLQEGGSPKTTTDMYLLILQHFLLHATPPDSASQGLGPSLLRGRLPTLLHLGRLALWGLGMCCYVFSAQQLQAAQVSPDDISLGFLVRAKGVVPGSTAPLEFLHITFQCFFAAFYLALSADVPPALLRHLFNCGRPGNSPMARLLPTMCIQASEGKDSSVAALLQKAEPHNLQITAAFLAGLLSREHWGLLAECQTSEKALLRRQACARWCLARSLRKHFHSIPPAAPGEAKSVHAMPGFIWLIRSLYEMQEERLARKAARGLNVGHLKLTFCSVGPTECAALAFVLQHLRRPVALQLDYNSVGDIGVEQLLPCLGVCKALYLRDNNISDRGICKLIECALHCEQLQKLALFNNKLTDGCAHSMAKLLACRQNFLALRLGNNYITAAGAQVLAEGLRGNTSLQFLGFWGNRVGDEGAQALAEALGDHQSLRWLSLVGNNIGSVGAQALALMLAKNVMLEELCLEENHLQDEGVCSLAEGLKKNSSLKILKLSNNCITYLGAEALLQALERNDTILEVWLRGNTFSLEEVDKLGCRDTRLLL
Chain of Coagulation factor XII (P00748 20-372 limits assumed): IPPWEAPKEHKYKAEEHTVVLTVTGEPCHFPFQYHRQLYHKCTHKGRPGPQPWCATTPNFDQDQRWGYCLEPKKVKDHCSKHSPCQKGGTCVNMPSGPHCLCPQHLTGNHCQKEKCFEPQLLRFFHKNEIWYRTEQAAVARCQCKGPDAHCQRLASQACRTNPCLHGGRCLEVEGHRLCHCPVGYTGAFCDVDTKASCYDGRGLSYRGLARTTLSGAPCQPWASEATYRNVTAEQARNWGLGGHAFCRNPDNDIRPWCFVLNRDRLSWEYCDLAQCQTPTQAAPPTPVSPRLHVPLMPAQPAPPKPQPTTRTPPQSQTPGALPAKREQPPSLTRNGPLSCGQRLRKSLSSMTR
Chain of Coagulation factor XII (P00748 373-615 limits assumed): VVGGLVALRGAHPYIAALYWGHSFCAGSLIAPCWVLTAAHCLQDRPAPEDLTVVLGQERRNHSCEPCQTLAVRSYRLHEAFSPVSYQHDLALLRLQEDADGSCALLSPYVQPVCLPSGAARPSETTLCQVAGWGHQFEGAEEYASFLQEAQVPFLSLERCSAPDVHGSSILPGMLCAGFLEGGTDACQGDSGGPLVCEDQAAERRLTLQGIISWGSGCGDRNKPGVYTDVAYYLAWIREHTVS
Chain of Bcl-2-like protein 10 (Q9HD36 whole entry): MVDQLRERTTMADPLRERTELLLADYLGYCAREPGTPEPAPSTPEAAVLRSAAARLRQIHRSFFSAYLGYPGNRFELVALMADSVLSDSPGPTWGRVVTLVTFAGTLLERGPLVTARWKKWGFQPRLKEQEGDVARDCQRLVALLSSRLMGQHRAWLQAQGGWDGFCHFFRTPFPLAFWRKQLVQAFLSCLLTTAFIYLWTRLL

Question: How did the IC50 [1] turn out when Cc1cc(NC(=O)c2ccc(C)s2)n(-c2nc3ccccc3[nH]2)n1 was run?
Answer: > 20 µM (inactive)

Question: And the EC50 [2]?
Answer: 4.06 µM (active)

Question: And the IC50 [3]?
Answer: > 20 µM (inactive)

Question: What about the IC50 [4] of the same molecule?
Answer: > 20 µM (inactive)

Question: What about the EC50 [5] of the same molecule?
Answer: > 20 µM (inactive)

Question: What about the IC50 [6] of the same molecule?
Answer: > 20 µM (inactive)

Question: And the IC50 [7]?
Answer: > 20 µM (inactive)

Question: What about the IC50 [8] of the same molecule?
Answer: > 20 µM (inactive)

Question: And the EC50 [9]?
Answer: 5.48 µM (active)

Question: What about the IC50 [10] of the same molecule?
Answer: 4.57 µM (inactive)

Question: What about the EC50 [11] of the same molecule?
Answer: 3.04 µM (active)

Question: What about the IC50 [12] of the same molecule?
Answer: > 20 µM (inactive)

Question: Which IC50 [13] does the source give for COc1ccc(Oc2c(CO)cnn(-c3ccc(C(C)C)cc3)c2=O)cc1 here?
Answer: 7.4 µM (active)

Question: With COc1ccc(OC)c(/C=N/Nc2cc(C)nc(N3CCOCC3)n2)c1 as the molecule, how does the IC50 [14] read?
Answer: > 50 µM (inactive)

Question: Cc1ccc(N2CN=c3s/c(=C\c4cccnc4)c(=O)n3C2)cc1 was tested. Which IC50 [15] did it give?
Answer: > 100 µM (inactive)

Question: How did the IC50 [16] turn out when COCc1c(N)c(C)nc(Cl)c1C#N was run?
Answer: 13.9 µM (active)

Question: And the IC50 [17]?
Answer: > 50 µM (inactive)

Question: And the IC50 [18]?
Answer: 50 µM (inactive)

Question: What about the IC50 [19] of the same molecule?
Answer: 13.3 µM (active)

Question: How did the IC50 [14] turn out when CC1(C)CC(=O)C=C(NNC(=O)c2ccccc2O)C1 was run?
Answer: > 50 µM (inactive)

Question: CCCN(CCC)Cc1c(C(=O)N/N=C/C(C)=C\c2ccco2)nnn1-c1nonc1N was tested. Which AC50 [20] did it give?
Answer: 2.86 µM (active)

Question: And the EC50 [21]?
Answer: 0.625 µM (active)

Question: CN(C)CC(c1ccccc1)c1ccccc1 was tested. Which EC50 [22] did it give?
Answer: > 55.7 µM (not active)

Question: What about the EC50 [23] of the same molecule?
Answer: > 55.7 µM (not active)
